Test system: IMR90 fibroblasts, CD4+ and CD8+ T cells, CD34+ cells
Assay: Senescence and heterochromatic hypomethylation with cell division/aging, rescue with Vitamin C
Format: cell-based, human
Conditions: activator of TET proteins
Description: Example 9: The inventors investigated heterochromatin dysfunction as a function of both cellular age and number of cell divisions, using multiple cellular systems: IMR90 fibroblasts, freshly isolated CD4+ and CD8+ T cells from young and old human donors, and commercially available CD34^+ cells (enriched for hematopoietic precursor cells) from human newborns (cord blood) and older adults.
Tet1/2/3 triple-foxed (Tet1/2/3 Tfl) RosaYFP^LSL or RosaYFP^LSL mice were used, left […] with tamoxifen; (ii) DNMT3a (or multiple Dnmt) foxed mice, also bearing the RosaYFP^LSL reporter and left […] with tamoxifen. Mouse fibroblasts have a longer passage time to senescence, so IMR90 human fibroblasts in which partial TET or DNMT loss-of-function was induced by genome editing were also used.

## O=C1O[C@H]([C@@H](O)CO)C(O)=C1O [Vitamin C]
  hypomethylation observed with cell division and/or aging: can be rescued
  time to senescence: can be delayed
